Experimental data as given in PMC11476419, “Analysis of Punicalin and Punicalagin Interaction with PDIA3 and PDIA1” (International Journal of Molecular Sciences, 2024).

Legend:
PDIA1 [1] = target: T1, PDIA1 (Homo sapiens, UniProt P07237); parameters: method as in Paglia et al. [40]; conditions: reduced PDIA1; ref Paglia et al. [40]; cited from earlier work
T1 construct: The mature human PDIA1 with an N-terminal His6x-tag was expressed and purified; His6 (N); made in house

PDIA3 [2] = target: T2, PDIA3 (Homo sapiens, UniProt P30101); experiment: Insulin turbidity assay, disulfide reductase activity; type: biochemical; conditions: insulin substrate, PDIA3 1600 nM, reducing conditions
T2 construct: The mature recombinant form (devoid of the N-terminal presence) of the human PDIA3 protein was expressed and purified; made in house
T2 sequence (P30101 25-505): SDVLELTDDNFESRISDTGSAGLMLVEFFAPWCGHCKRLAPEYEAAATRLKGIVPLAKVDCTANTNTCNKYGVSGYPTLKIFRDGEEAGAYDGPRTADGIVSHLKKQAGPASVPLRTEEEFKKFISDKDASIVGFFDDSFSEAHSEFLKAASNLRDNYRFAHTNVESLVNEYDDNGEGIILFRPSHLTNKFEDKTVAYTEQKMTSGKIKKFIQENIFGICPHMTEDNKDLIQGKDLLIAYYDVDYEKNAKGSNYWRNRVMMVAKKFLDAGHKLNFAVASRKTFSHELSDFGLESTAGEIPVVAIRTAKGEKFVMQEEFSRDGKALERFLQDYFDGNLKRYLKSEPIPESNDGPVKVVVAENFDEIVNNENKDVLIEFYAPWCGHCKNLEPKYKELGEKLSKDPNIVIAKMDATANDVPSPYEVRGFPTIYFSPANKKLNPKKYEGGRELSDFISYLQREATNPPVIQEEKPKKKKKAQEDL
Experimental: (§1) To further evaluate the inhibitory effect of punicalin and punicalagin on the enzymatic activity of the two proteins, we performed a different assay using insulin, a physiologically more appropriate substrate. The results obtained are reported in Figure 4 and show again a lesser inhibitory effect of punicalin compared to punicalagin, as observed with the glutathione-based assay.
PDI disulfide reductase activity was assayed by measuring the reduction of insulin catalyzed by PDIs with DTT. A 50 μM stock solution of each PDI was reduced using TCEP (5 mM final concentration) for 90 min at room temperature. Aliquots of the stock solution were diluted in the incubation mixture (PDIA1 1.6 µM and PDIA3 3.2 µM) containing sodium phosphate buffer (100 mM sodium phosphate, 2 mM EDTA, pH 7.0) added with punicalin/punicalagin (concentration ranging from 0 to 50 µM) and incubated at 37 °C for 1 h. After incubation, an equal volume of the 2× reaction mixture (consisting of DTT 50 μM and human insulin 0.32 mM) was added. Protein activity was evaluated by monitoring the increase in turbidity of the solutions at 600 nm.
(§2) In both assays, the inhibition constants were extrapolated by GraphPad Prism 8.0 software (GraphPad Software, San Diego, CA, USA), plotting the obtained data as logarithm dose–response curves.

PDIA3 [3] = target: T2, PDIA3; parameters: method as in Paglia et al. [40]; conditions: reduced PDIA3; ref Paglia et al. [40]; cited from earlier work
PDIA1 [4] = target: T1, PDIA1; experiment: Insulin turbidity assay, disulfide reductase activity; type: biochemical; conditions: insulin substrate, PDIA1 800 nM, reducing conditions
Experimental: as §1
PDI disulfide reductase activity was assayed by measuring the reduction of insulin catalyzed by PDIs with DTT. A 50 μM stock solution of each PDI was reduced using TCEP (5 mM final concentration) for 90 min at room temperature. […] After incubation, an equal volume of the 2× reaction mixture (consisting of DTT 50 μM and human insulin 0.32 mM) was added. Protein activity was evaluated by monitoring the increase in turbidity of the solutions at 600 nm.
as §2

PDIA3 [5] = target: T2, PDIA3; experiment: Differential scanning fluorimetry (protein thermal shift); type: binding
Experimental: (§3) The effect of punicalin and punicalagin on the stability of both proteins was evaluated by differential scanning fluorimetry (DSF). Initially, PDIA1 and PDIA3 were incubated at 25 °C for 20 min with both substances at 5 µM and 20 µM concentrations. […] The reading was optimized at intervals of 0.2 °C every 5 s. Once the fluorescence profile was obtained, the data were analyzed with the GraphPad prism program, by either fitting data with a Boltzmann equation or calculating the first derivative. In DSF analyses, a gradual increase in fluorescence is observed, due to a conformational change in the protein, which reaches a maximum value and then decreases because of protein precipitation.
(§4) To evaluate Tm, we focused the attention on the main transition, and thus we fitted, with a Boltzmann equation, the data in the range of 25–55 °C for PDIA3 and in the range of 45–70 °C for PDIA1. Again, the two substances show a destabilizing effect, which was more evident for PDIA3 than for PDIA1. In fact, punicalagin and punicalin at a 20 µM concentration cause a shift of Tm of at least 6 °C in the case of PDIA3, while this is approximately 3 °C for PDIA1 (Figure 7).
(§5) Protein stability in the absence and presence of punicalagin/punicalin was tested by means of the fluorescence-based thermal stability assay or differential scanning fluorimetry (DSF) developed by Pantoliano and coworkers. DSF records the fluorescence emission signal from the binding of a dye (SYPRO orange) to the exposed hydrophobic patches upon protein unfolding. Fluorescence measurements were performed using a CFX96 Connect RT-PCR instrument (BioRad, Hercules, CA, USA). Aliquots of 18 μL of protein solution (2 μM), freshly diluted in Tris Buffered saline (50 mM TrisHCl, pH 8.0, 150 mM NaCl) containing 0.1 mM DTT, 0.2 mM EDTA, and 1: 1000 dilution of SYPRO Orange (50 mM stock solution in DMSO), were distributed in a 96-well plate. Sample wells were added with punicalagin or punicalin at a final concentration of 5 uM or 20 μM by adding 2 μL of a 10-fold concentrated freshly prepared stock solution. As control, the protein solution was added with 2 μL of the dilution buffer. A melting point analysis was recorded by increasing the temperature from 25 to 70 °C with an increment of 0.2 °C every 5 s and reading, at each temperature, the fluorescence in fluorescence resonance energy transfer mode (FRET). Each measure was the average of three sample well readings, and each DSF experiment was repeated at least three times. To calculate Tm values, DSF data from the melting curve were exported and fitted to a Boltzmann equation using GraphPad software. The effect of punicalagin and punicalin was evaluated comparing the Tm values in the presence and absence of each molecule.

PDIA1 [6] = target: T1, PDIA1; experiment: as above; type: binding; conditions: PDIA1, compound 20 µM
Experimental: as §3, §4, §5

PDIA3 [7] = test system: PDIA3; parameters: method as in PMID 37686085; conditions: 30 µM, 24 h after treatment; ref [34]; cited from earlier work

T1 sequence (P07237 18-508): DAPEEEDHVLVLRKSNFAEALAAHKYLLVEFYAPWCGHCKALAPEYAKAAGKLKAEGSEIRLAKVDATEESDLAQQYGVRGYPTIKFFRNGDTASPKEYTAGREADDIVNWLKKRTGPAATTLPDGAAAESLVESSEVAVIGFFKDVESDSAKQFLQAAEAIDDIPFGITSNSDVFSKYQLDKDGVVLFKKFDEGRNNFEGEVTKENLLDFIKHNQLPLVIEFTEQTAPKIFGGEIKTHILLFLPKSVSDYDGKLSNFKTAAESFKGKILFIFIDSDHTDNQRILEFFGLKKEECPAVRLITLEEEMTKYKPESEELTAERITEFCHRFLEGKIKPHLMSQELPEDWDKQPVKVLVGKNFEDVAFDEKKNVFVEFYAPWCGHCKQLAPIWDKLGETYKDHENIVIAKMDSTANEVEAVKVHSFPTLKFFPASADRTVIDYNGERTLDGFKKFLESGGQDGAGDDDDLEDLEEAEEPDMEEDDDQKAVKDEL

O=C1O[C@H]2[C@@H]3OC(=O)c4cc(O)c(O)c(O)c4-c4c(O)c(O)c5oc(=O)c6c(c(O)c(O)c7oc(=O)c4c5c76)-c4c(cc(O)c(O)c4O)C(=O)OC[C@H]3OC(O)[C@@H]2OC(=O)c2cc(O)c(O)c(O)c2-c2c1cc(O)c(O)c2O (mixture of isomers) [Punicalagin, punicalagin]
Stern–Volmer constant (KSV) (PDIA1 [1]): 97.9 ± 2.1 M^−1 × 10^3 | IC50 (PDIA3 [2]): 8.8 µM | Stern–Volmer constant (KSV) (PDIA3 [3]): 157.1 ± 1.9 M^−1 × 10^3 | IC50 (PDIA1 [4]): 13.7 µM | left shift of first transition (first-derivative graph) (PDIA3 [5]; PDIA3, compound 20 µM): about 3 °C | shift towards lower temperature of second transition (first-derivative graph) (PDIA3 [5]; PDIA3, compound 20 µM): more than 10 °C | shift of Tm (destabilizing, Boltzmann fit) (PDIA3 [5]; PDIA3, compound 20 µM, fit range 25–55 °C): at least 6 °C | Tm of PDIA3 after addition of compound (PDIA3 [5]; PDIA3 alone Tm 46 °C): below 40 °C | shift towards lower temperature of second main transition (first-derivative graph) (PDIA1 [6]): about 5 °C | shift of Tm (destabilizing, Boltzmann fit) (PDIA1 [6]; fit range 45–70 °C): approximately 3 °C | formation of PDIA3 protein aggregates (PDIA3 [7]): induced the formation of protein aggregates
